Assay results published in US20230357272A1, “OCTAHYDROPYRAZINODIAZANAPHTHYRIDINE DIONE COMPOUNDS” (MEDSHINE DISCOVERY INC., priority 2020, published 2023).
pIC50: −log10 of the molar value.

Key:
[1] = tested on: H358 human non-small cell lung cancer cell line; assay: Anti-tumor activity test on in vivo H358 xenograft tumor model; parameters: species or system Female Balb/c nude mice; settings: for T/C / TGI: 28 days; for mean tumor volume: 28 days after administration
Text: Human non-small cell lung cancer H358 was used to investigate the tumor-inhibitory effect of the compound to be tested alone in an in vivo tumor model.
Female Balb/c nude mice were subcutaneously inoculated with the H358 human non-small cell lung cancer cell line, randomly grouped on the 6th day after inoculation according to tumor size and animal body weight, and administered as described below.
Vehicle control group: The administration was started in the afternoon of the grouping day, once a day, and the vehicle (10% DMSO/60% PEG400/30% deionized water) was intragastrically administered at a dose of 0.1 mL/10 g body weight for 28 consecutive days.
Administration group: The administration was started in the afternoon of the grouping day, once a day, and 3 groups were intragastrically administered with compound 1D (10% DMSO/60% PEG400/30% deionized water) at the doses of 1 mg/kg, 3 mg/kg and 10 mg/kg body weight, respectively, for 28 consecutive days.
During the experiment, the mice were weighed twice a week, and the tumor volume was measured (tumor volume was calculated according to the formula of length×width^2/2). The tumor inhibition rate TGI (%) was calculated according to the formula TGI (%)=[(1−mean tumor volume at the end of administration of a treatment group−mean tumor volume at the time of group administration of the treatment group)/(mean tumor volume at the end of treatment of vehicle control group−mean tumor volume at the time of group administration of vehicle control group)]×100%.
The relative tumor volume was calculated as RTV=TVn/TV1×100%
Where TV1 was the tumor volume on the day of group administration, and TVn was the tumor volume on the day of measurement.
Relative tumor proliferation rate (T/C %)=RTVt/RTVc×100%
Where RTVt was the mean relative tumor volume of the treatment group, and RTVc was the mean relative tumor volume of the vehicle control group.

[2] = tested on: MIA-PA-CA-2 cells; assay: Anti-proliferation experiment of MIA-PA-CA-2 cells (CellTiter-Glo); format: cell-based; settings: Homo sapiens, MIA PaCa-2, 72 h, 3 days
Procedure: DMEM culture medium, fetal bovine serum purchased from Biosera, and horse serum purchased from Gibco. CellTiter-Glo (chemiluminescence detection reagent for cell viability) reagent purchased from Promega. MIA-PA-CA-2 cell line purchased from Nanjing CoBioer Biotechnology Co., Ltd. EnVision multi-label analyzer (PerkinElmer).
MIA-PA-CA-2 cells were seeded in a white 96-well plate with 80 μL of cell suspension per well, which contained 1000 MIA-PA-CA-2 cells. The cell plate was incubated overnight in a carbon dioxide incubator.
The compounds to be tested were diluted 5-fold with a row gun to the eighth concentration, that is, from 2 mM to 26 nM, and a double-duplication experiment was set up. 78 μL of culture medium was added to a middle plate, and then 2 μL of gradient diluted compound per well was transferred to the middle plate according to the corresponding position. After being thoroughly mixed, 20 μL per well was transferred to the cell plate. The concentration range of the compound transferred to the cell plate was 10 μM to 0.13 nM. The cell plate was placed in the carbon dioxide incubator for 3 days. Another cell plate was prepared, and the signal value was read as the maximum value (Max value in the equation below) on the day of administration to participate in data analysis. 25 μL of cell viability chemiluminescence detection reagent was added to each well of the cell plate, and incubated at room temperature for 10 minutes to stabilize the luminescence signal. A multi-label analyzer was used for reading.
Using the equation (Sample−Min)/(Max−Min)*100% to convert the raw data into inhibition rate, and the value of IC50 might be obtained by curve fitting with four parameters (obtained by “log (inhibitor)/response—Variable scope” mode in GraphPad Prism software). Table 2 provides the inhibitory activity of the compounds of the present disclosure on the proliferation of MIA-PA-CA-2 cells.

[3] = 1 mg/kg intragastric once a day
[4] = 3 mg/kg intragastric once a day
[5] = 10 mg/kg intragastric once a day

**Q.** With `C=CC(=O)N1CCN2c3c(c(=O)n(-c4c(C)ccnc4C(C)C)c4c(=O)n(-c5c(N)c(Cl)cc(Cl)c5F)c(C(F)(F)F)cc34)OCC[C@H]2C1` [Compound 1D] as the molecule, how does the T/C [1, 3] read?
**A.** The T/C was 51.35%.

**Q.** And the TGI [1, 3]?
**A.** The TGI was 58.78%.

**Q.** And the mean tumor volume [1, 3]?
**A.** Its mean tumor volume is 341.36 mm^3.

**Q.** What about the T/C [1, 4] of the same molecule?
**A.** Its T/C is 27.59%.

**Q.** And the TGI [1, 4]?
**A.** The TGI was 84.17%.

**Q.** What about the mean tumor volume [1, 4] of the same molecule?
**A.** The mean tumor volume was 199.4 mm^3.

**Q.** And the T/C [1, 5]?
**A.** The T/C was 5.76%.

**Q.** And the TGI [1, 5]?
**A.** The TGI was 113.19%.

**Q.** What about the mean tumor volume [1, 5] of the same molecule?
**A.** The mean tumor volume was 37.5 mm^3.

**Q.** And the pIC50 [2]?
**A.** Its pIC50 is 8.10.
